Measured values: patent publication US9776979B2, “EBI2 modulators” (Sanford-Burnham Medical Research Institute, priority 2013, dated 2017)

Target: EBI2 (Homo sapiens, UniProt P32249)
Experiment: Cell-based luminescent assay (EBI2 modulation)
Settings: not given
Summary of the method: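 Cells plated overnight at 37° C, then exposed to compound at 4-5 uM final with 80 nM 7a,25-OHC agonist for 60 min at 37° C. Luminescence read after 60 min detection at 25° C in the dark; values normalized to neutral and stimulator controls and plate-pattern corrected.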

EBI2, sequence (P32249 whole entry): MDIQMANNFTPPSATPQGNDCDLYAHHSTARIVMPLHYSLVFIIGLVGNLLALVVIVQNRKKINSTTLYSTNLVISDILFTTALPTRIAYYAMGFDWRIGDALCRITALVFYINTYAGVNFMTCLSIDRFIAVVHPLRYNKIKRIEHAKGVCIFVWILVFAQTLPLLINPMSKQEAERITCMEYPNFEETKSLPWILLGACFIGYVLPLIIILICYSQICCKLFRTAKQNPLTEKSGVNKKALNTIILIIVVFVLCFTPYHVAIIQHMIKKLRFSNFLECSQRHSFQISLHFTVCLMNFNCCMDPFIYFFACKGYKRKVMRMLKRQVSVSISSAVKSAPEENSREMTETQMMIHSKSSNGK

Row | SMILES | IC50
1 | O=C(/C=C/c1ccccc1)N1CCN(Cc2ccc(Cl)cc2)CC1 [Compound C354, (2E)-1-{4-[(4-chlorophenyl)methyl]piperazinyl}-3-phenylprop-2-en-1-one] | < 0.1 µM

Same assay, conditions: cell-based luminescence; 7a,25-OHC final assay concentration 80 nM; 60 minutes incubation; read-out: IC50

Row | SMILES | IC50
2 | O=C(c1cc2cc(Cl)ccc2[nH]1)N1CCN(Cc2ccc(-c3ccccc3)cc2)CC1 [Compound C327, 5-chloroindol-2-yl 4-[(4-phenylphenyl)methyl]piperazinyl ketone] | < 0.1 µM
3 | Cc1ccc2[nH]c(C(=O)N3CCN(Cc4ccc(Cl)c(Cl)c4)CC3)cc2c1 [Compound C328, 4-[(3,4-dichlorophenyl)methyl]piperazinyl 5-methylindol-2-yl ketone] | < 0.1 µM
4 | O=C(c1ccc(C(F)(F)F)c(F)c1)N1CCN(C(=O)c2cc3ccc(Br)cc3[nH]2)CC1 [Compound C329, 6-bromoindol-2-yl 4-{[3-fluoro-4-(trifluoromethyl)phenyl]carbonyl}piperazinyl ketone] | < 0.1 µM
5 | O=C(c1cc2cc(Cl)ccc2[nH]1)N1CCN(Cc2ccc(C(F)(F)F)cc2)CC1 [Compound C331, 5-chloroindol-2-yl 4-{[4-(trifluoromethyl)phenyl]methyl}piperazinyl ketone] | < 0.1 µM
6 | COc1ccc(CN2CCN(C(=O)/C=C/c3ccccc3)CC2)cc1 [Compound C332, (2E)-1-{4-[(4-methoxyphenyl)methyl]piperazinyl}-3-phenylprop-2-en-1-one] | < 0.1 µM
7 | CC(C)(C)c1ccc(S(=O)(=O)N2CCN(C(=O)/C=C/c3ccc(Cl)c(Cl)c3)CC2)cc1 [Compound C334, (2E)-3-(3,4-dichlorophenyl)-1-(4-{[4-(tert-butyl)phenyl]sulfonyl}piperazinyl)prop-2-en-1-one] | < 0.1 µM
8 | O=C(C#Cc1ccc(Br)cc1)N1CCN(C(=O)c2ccc(F)cc2C(F)(F)F)CC1 [Compound C336, 3-(4-bromophenyl)-1-(4-{[4-fluoro-2-(trifluoromethyl)phenyl]carbonyl}piperazinyl)prop-2-yn-1-one] | < 0.1 µM
9 | CC(C)c1ccc2[nH]c(C(=O)N3CCN(C(c4ccccc4)c4ccccc4)CC3)cc2c1 [Compound C338, 4-(diphenylmethyl)piperazinyl 5-(methylethyl)indol-2-yl ketone] | < 0.1 µM
10 | Cc1ccc2[nH]c(C(=O)N3CCN(Cc4ccc(Cl)cc4)CC3)cc2c1 [Compound C339, 4-[(4-chlorophenyl)methyl]piperazinyl 5-methylindol-2-yl ketone] | < 0.1 µM
11 | N#Cc1ccccc1S(=O)(=O)N1CCN(C(=O)/C=C/c2ccc(F)cc2)CC1 [Compound C341, 2-({4-[(2E)-3-(4-fluorophenyl)prop-2-enoyl]piperazinyl}sulfonyl)benzenecarbonitrile] | < 0.1 µM
12 | O=C(C#Cc1cc(F)cc(F)c1)N1CCN(C(=O)c2ccc(Cl)cc2)CC1 [Compound C343, 3-(3,5-difluorophenyl)-1-{4-[(4-chlorophenyl)carbonyl]piperazinyl}prop-2-yn-1-one] | < 0.1 µM
13 | O=C(/C=C/c1ccccc1)N1CCN(Cc2ccccc2Br)CC1 [Compound C344, (2E)-1-{4-[(2-bromophenyl)methyl]piperazinyl}-3-phenylprop-2-en-1-one] | < 0.1 µM
14 | O=C(c1cc2ccccc2[nH]1)N1CCN(CCc2ccccc2)CC1 [Compound C347, indol-2-yl 4-(phenylethyl)piperazinyl ketone] | < 0.1 µM
15 | O=C(C#Cc1ccc(F)cc1F)N1CCN(C(=O)c2ccc(Cl)cc2)CC1 [Compound C349, 3-(2,4-difluorophenyl)-1-{4-[(4-chlorophenyl)carbonyl]piperazinyl}prop-2-yn-1-one] | < 0.1 µM
16 | O=C(c1ccc2ccccc2n1)N1CCN(C(c2ccccc2)c2ccccc2)CC1 [Compound C351, 4-(diphenylmethyl)piperazinyl 2-quinolyl ketone] | < 0.1 µM
17 | O=C(C#Cc1cccc(Cl)c1)N1CCN(Cc2ccc(C(F)(F)F)cc2)CC1 [Compound C353, 3-(3-chlorophenyl)-1-(4-{[4-(trifluoromethyl)phenyl]methyl}piperazinyl)prop-2-yn-1-one] | < 0.1 µM
18 | O=C(/C=C/c1ccc(Br)cc1)N1CCCN(S(=O)(=O)/C=C/c2ccccc2)CC1 [Compound C355, (2E)-1-{4-[((1E)-2-phenylvinyl)sulfonyl](1,4-diazaperhydroepinyl)}-3-(4-bromophenyl)prop-2-en-1-one] | < 0.1 µM
19 | O=C(C#Cc1ccc(Cl)cc1)N1CCN(Cc2ccc(C(F)(F)F)cc2)CC1 [Compound C356, 3-(4-chlorophenyl)-1-(4-{[4-(trifluoromethyl)phenyl]methyl}piperazinyl)prop-2-yn-1-one] | < 0.1 µM
20 | Cc1cc(F)ccc1OC1CCN(C(=O)c2cc3cc(Cl)ccc3[nH]2)CC1 [Compound C357, 5-chloroindol-2-yl 4-(4-fluoro-2-methylphenoxy)piperidyl ketone] | < 0.1 µM
21 | COC(=O)c1cccc(CN2CCN(C(=O)c3cc4cc(Cl)ccc4[nH]3)CC2)c1 [Compound C358, methyl 3-({4-[(5-chloroindol-2-yl)carbonyl]piperazinyl}methyl)benzoate] | < 0.1 µM
22 | COC(=O)c1cccc(C(=O)N2CCN(C(=O)c3cc4cc(Cl)ccc4[nH]3)CC2)c1 [Compound C363, methyl 3-({4-[(5-chloroindol-2-yl)carbonyl]piperazinyl}carbonyl)benzoate] | 0.1 to 0.5 µM

Row | SMILES | IC50
23 | O=C(/C=C/c1ccccc1)N1CCN(Cc2cccc(Cl)c2)CC1 [Compound C365, (2E)-1-{4-[(3-chlorophenyl)methyl]piperazinyl}-3-phenylprop-2-en-1-one] | < 0.1 µM
24 | O=C(c1ccc(Cl)cc1)N1CCN(C(=O)c2cc3ccc(F)cc3[nH]2)CC1 [Compound C366, 4-[(4-chlorophenyl)carbonyl]piperazinyl 6-fluoroindol-2-yl ketone] | 0.1 to 0.5 µM
25 | O=C(/C=C/c1ccc(F)cc1)N1CCN(S(=O)(=O)c2cccs2)CC1 [Compound C367, (2E)-3-(4-fluorophenyl)-1-[4-(2-thienylsulfonyl)piperazinyl]prop-2-en-1-one] | < 0.1 µM
26 | CCCCN1CCN(C(=O)c2cc3cc(Cl)ccc3[nH]2)CC1 [Compound C368, 4-butylpiperazinyl 5-chloroindol-2-yl ketone] | < 0.1 µM
27 | O=C(C#Cc1ccc(Cl)cc1)N1CCN(Cc2ccc(F)cc2)CC1 [Compound C369, 3-(4-chlorophenyl)-1-{4-[(4-fluorophenyl)methyl]piperazinyl}prop-2-yn-1-one] | < 0.1 µM
28 | O=C(c1cc2cc(Br)ccc2[nH]1)N1CCN(Cc2ccc(C(F)(F)F)cc2)CC1 [Compound C371, 5-bromoindol-2-yl 4-{[4-(trifluoromethyl)phenyl]methyl}piperazinyl ketone] | < 0.1 µM
29 | COc1ccc(CN2CCN(C(=O)C#Cc3ccc(Cl)cc3)CC2)cc1 [Compound C372, 3-(4-chlorophenyl)-1-{4-[(4-methoxyphenyl)methyl]piperazinyl}prop-2-yn-1-one] | < 0.1 µM
30 | O=C(/C=C/c1ccccc1)N1CCN(Cc2ccccc2Cl)CC1 [Compound C374, (2E)-1-{4-[(2-chlorophenyl)methyl]piperazinyl}-3-phenylprop-2-en-1-one] | < 0.1 µM
31 | O=C(c1ccc(C(F)(F)F)cc1)N1CCN(C(=O)c2cc3ccc(Br)cc3[nH]2)CC1 [Compound C375, 6-bromoindol-2-yl 4-{[4-(trifluoromethyl)phenyl]carbonyl}piperazinyl ketone] | 0.1 to 0.5 µM
32 | O=C(/C=C/c1ccc(Br)cc1F)N1CCN(S(=O)(=O)c2ccc(Br)cc2)CC1 [Compound C377, (2E)-3-(4-bromo-2-fluorophenyl)-1-{4-[(4-bromophenyl)sulfonyl]piperazinyl}prop-2-en-1-one] | < 0.1 µM
33 | O=C(c1cc2cc(Cl)ccc2[nH]1)N1CCN(C(=O)c2ccc(F)cc2F)CC1 [Compound C378, 4-[(2,4-difluorophenyl)carbonyl]piperazinyl 5-chloroindol-2-yl ketone] | < 0.1 µM
34 | O=C(c1cc2sccc2[nH]1)N1CCN(C(c2ccccc2)c2ccccc2)CC1 [Compound C380, 4-(diphenylmethyl)piperazinyl thiopheno[2,3-d]pyrrol-5-yl ketone] | < 0.1 µM
35 | O=C(c1ccc(Br)cc1)N1CCN(C(=O)c2ccc3ccccc3c2)CC1 [Compound C381, 4-bromophenyl 4-(2-naphthylcarbonyl)piperazinyl ketone] | < 0.1 µM
36 | O=C(c1ccc(B(O)O)cc1)N1CCN(C(=O)c2cc3ccc(Br)cc3[nH]2)CC1 [Compound C382, 4-(4-(6-bromo-1H-indole-2-carbonyl)piperazine-1-carbonyl)phenylboronic acid] | < 0.1 µM
37 | O=C(C#Cc1ccc(Cl)cc1)N1CCN(Cc2ccc(Cl)cc2)CC1 [Compound C384, 3-(4-chlorophenyl)-1-{4-[(4-chlorophenyl)methyl]piperazinyl}prop-2-yn-1-one] | < 0.1 µM
38 | COc1ccc(/C=C/C(=O)N2CCN(S(=O)(=O)c3ccc(C(C)(C)C)cc3)CC2)cc1 [Compound C385, (2E)-1-(4-{[4-(tert-butyl)phenyl]sulfonyl}piperazinyl)-3-(4-methoxyphenyl)prop-2-en-1-one] | < 0.1 µM
39 | O=C(c1cc2cc(Cl)ccc2[nH]1)N1CCC(Oc2ccc(C(F)(F)F)cc2)CC1 [Compound C390, 5-chloroindol-2-yl 4-[4-(trifluoromethyl)phenoxy]piperidyl ketone] | 0.1 to 0.5 µM
40 | O=C(c1ccc(C(F)(F)F)cc1)N1CCN(C(=O)c2cc3ccc(Cl)cc3[nH]2)CC1 [Compound C391, 6-chloroindol-2-yl 4-{[4-(trifluoromethyl)phenyl]carbonyl}piperazinyl ketone] | < 0.1 µM
41 | CC(C)CN1CCN(C(=O)/C=C/c2ccccc2)CC1 [Compound C392, (2E)-1-[4-(methylpropyl)piperzinyl]-3-phenylprop-2-en-1-one] | < 0.1 µM
42 | N#Cc1cccc(C(=O)N2CCN(C(=O)c3cc4cc(Cl)ccc4[nH]3)CC2)c1 [Compound C395, 3-({4-[(5-chloroindol-2-yl)carbonyl]piperazinyl}carbonyl)benzenecarbonitrile] | < 0.1 µM
